Series [1] in a line: Pharmacokinetic study in rats of (S)-M1 and Compound 435(S) after oral dosing (Example 37). The format is in vivo, male Sprague-Dawley rats. Here is the method: (§1) (S)-M1 and Compound 435(S) (a deuterated form of (S)-M1) were separately dissolved in saline at a concentration of 10 mg/mL. A 1:1 mixture of the two compounds was then prepared containing a final concentration of 5 mg/mL of each compound, which was used for intravenous administration. For oral administration the mixture was further diluted in saline to a final concentration of 1 mg/mL for each compound.
(§2) Three male Sprague-Dawley rats were used in each of the oral and intravenous studies. Animals were fasted overnight prior to administration of compounds. Intravenous administration was achieved by bolus injection of a single 5 mg/kg dose of the 1:1 combination into the cannulated jugular vein of the rats. Cannulation was achieved the day prior to dosing on rats that had been placed under anesthesia using ketamine (IM 30 mg/kg). Oral administration was achieved by oral gavage of a single 5 mg/kg dose. Blood samples (250 μL) were collected from the dosed rats at various times post-dosing (2 min, 5 min, 10 min, 20 min, 30 min, 1 hr, 2 hr, 3 hr, 4 hr, 5 hr, 6 hr) by retro-orbital sampling of the rats temporarily anesthetized with isoflurane. Blood samples were placed in tubes containing K2-EDTA and stored on ice until centrifuged. Within 30 minutes of collection, plasma was isolated by centrifugation. A 100-μL aliquot was removed, mixed with 200 μL of acetonitrile and stored at −20° C. until further analysis by LC-MS/MS using an Applied Bio-systems API 4000 mass spectrometer.
(§3) Samples were analyzed for the presence of the administered compound, the corresponding ketone (pentoxifylline and Compound 409) and the corresponding M5 metabolite. Samples (10 μL) were injected into a Zorbax SB-C8 (Rapid Resolution) column (2.1×30 mm, 3.5 μm). The initial mobile phase condition was 100% A (10 mM ammonium acetate in water) and 0% B (methanol) with a flow rate at 0.5 mL/min. Mobile phase B was allowed to reach 55% in 3 minutes and from 55% to 90% in 1 minute before ramping back to 0% in another minute. The overall run time was 5 minutes. For pentoxifylline and its M1 and M5 metabolites, the precursor/product ion pairs were set at m/z 281/193 (M1), m/z 279/181 (pentoxifylline), and m/z 267/221 (M5).
(§4) For Compound 435(S) and Compound 409 more than one ion pair was set up for to detect species that arose from loss of deuterium. […] This loss of deuterium appears to occur both in vivo and ex vivo by an unknown mechanism. The addition of acetonitrile to serum samples was used to stop any additional ex vivo deuterium loss prior to analysis. Typically, no more than 2 deuterium atoms were replaced by hydrogen. For Compound 435(S), there is a deuterium at the methinyl position which was lost upon oxidation to the keto-compound 409. Reduction of 409 to an M1 metabolite introduced a proton at the methinyl position. When serum from animals dosed with 435(S) were analyzed to quantitate administered compound and metabolites, compound species were included with one and two less side chain deuteriums in the total amounts (referred to hereinafter as the “−1D” and the “−2D” species). Thus, for Compound 435(S) and Compound 409 separate ion pairs were set up to detect the compound and its corresponding −1D and −2D species. For Compound 435(S) three ion pairs were detected: m/z 291/197, 290/197, and […]. For Compound 409 ion pairs of m/z 288/186, 287/186 and 286/186 were monitored. Inclusion of −1D and −2D species in the measurements of Compound 409 and Compound 435(S) more accurately quantitates the total active species and is reasonable based on what is known about the metabolism and activities of pentoxifylline and its M-1 metabolites. Increased plasma exposure to Compound 409 or any M-1 metabolites of 409 would be desirable. This includes the −1D and −2D species.
(§5) [drawing 78] which has no deuterium on its acid side chain, only one ion pair was used at m/z 271/225. The internal standard for the analysis was indiplon.

Series [2] is described as follows: Pharmacokinetic study of pentoxifylline and Compound 435(S) in chimps after intravenous dosing (Example 38). Format: in vivo. To be noted: for AUC(0-inf): IV infusion 75 mg each of pentoxifylline and 435(S) over 10 minutes, species named in label measured in plasma; for % Difference in AUC0-∞ Female (deuterated vs nondeuterated species) / % Difference in AUC0-∞ Male (deuterated vs nondeuterated species): intravenous. The method, then:
(§6) Pentoxifylline and Compound 435(S) were separately dissolved in warm (65° C.) saline at a concentration at 10 mg/mL. A 1:1 mixture of the two compounds was then prepared containing a final concentration of 5 mg/mL of each compound and the mixture was then sterile filtered through a 0.2-μm filter.
(§7) Two chimps (one male and one female) were used in each of the oral and intravenous studies. Animals were fasted overnight prior to administration of compounds. All animals were sedated with ketamine (approximately 10 mg/kg) and/or telazol (approximately 5 mg/kg) prior to dosing. Intravenous administration was achieved by IV infusion of 75 mg of each compound (15 mL total dosing solution) over 10 minutes. Oral administration was achieved by oral gavage of a single 75 mg dose of each compound (15 mL total dosing solution). Blood samples (6 mL) were collected from the dosed chimps at various times prior to and after dosing. For intravenous administrations blood samples were collected at 0 min (preinfusion), 5 min, 9.5 min (immediately before the end of the infusion), then 6, 15, 30 and 45 min, and 1, 2, 4, 6, 8, 10 and 12 hr after the infusion is stopped. For oral administrations, blood samples were collected at 0 min (predose), 15 and 30 min, and 1, 1.5, 2, 4, 6, 8, 10 and 12 hr postdose.
(§8) Blood samples were placed in tubes containing sodium heparin, mixed and stored on ice until centrifuged. Within 30 minutes of collection, plasma was isolated by centrifuging the blood samples and removing an aliquot (200 μL) of the resulting plasma. Each 200-μL aliquot of plasma was mixed with 400 μL acetonitrile and stored at −70° C. until further analysis by LC-MS/MS using an Applied Bio-systems API 4000 mass spectrometer.
(§9) The analysis of all samples by LC-MS/MS was performed as described above for the rat plasma samples in Example 37.

The nature of series [3]: Pharmacokinetic study of pentoxifylline and Compound 435(S) in chimps after oral dosing (Example 39). Format: in vivo. The note with it: for % Difference in AUC0-12 Female (deuterated vs nondeuterated species) / % Difference in AUC0-12 Male (deuterated vs nondeuterated species): oral. Here is the method: Pentoxifylline and Compound 435(S) were tested according to a protocol similar to the Oral Dosing protocol followed in Example 38, except that (a) the compounds were separately dissolved in water rather than saline; (b) the mixture of the two compounds was not sterile filtered; and (c) oral administration was achieved by oral gavage of a single 65 mg dose of each compound (13 mL total dosing solution).

Series [4] is described as follows: Pharmacokinetic study of pentoxifylline and Compound 435(S) in chimps after oral dosing (Example 38). The note with it: for % Difference in AUC0-∞ Female (deuterated vs nondeuterated species) / % Difference in AUC0-∞ Male (deuterated vs nondeuterated species): oral; for AUC(0-inf): oral gavage 75 mg each of pentoxifylline and 435(S) as 1:1 mixture, species named in label measured in plasma. The format is in vivo. The method, then: as §6, §7, §8, §9

Series [5] can be described thus: Pharmacokinetic study in rats of (S)-M1 and Compound 435(S) after intravenous dosing (Example 37). The format is in vivo, male Sprague-Dawley rats. To be noted: for AUC(0-inf): male, Sprague-Dawley, rat. Here is the method:
as §1, §2, §3, §4, §5

Where [6] appears, read: male, Sprague-Dawley, rat, oral gavage single 5 mg/kg dose, 1:1 mixture of (S)-M1 and 435(S), species named in label measured in plasma, −1D and −2D species included.
Setting [7] is: female chimp, read-out: AUC0-∞ Female.
[8] abbreviates: male chimp, read-out: AUC0-∞ Male.
[9] abbreviates: female chimp, oral gavage 65 mg each of pentoxifylline and 435(S) in water, species named in label measured in plasma, read-out: AUC0-12 Female.
Where [10] appears, read: male chimp, oral gavage 65 mg each of pentoxifylline and 435(S) in water, species named in label measured in plasma, read-out: AUC0-12 Male.
Setting [11] is: intravenous bolus single 5 mg/kg dose of 1:1 combination of (S)-M1 and 435(S), species named in label measured in plasma.

Data on three compounds can be found in patent US8263601B2, “Deuterium substituted xanthine derivatives” (CoNCERT Pharmaceuticals, Inc., priority 2009, dated 2012).

Read-outs that look alike come from different tables or passages of the source.

Broadly, the Cmax is the highest concentration seen after dosing.

On to `[2H]c1nc2c(c(=O)n(CCCC(=O)O)c(=O)n2C)n1C([2H])([2H])[2H]` [Deuterated M5 (M5a)], for which the AUC(0-inf) in series [1] (setting [6]) stood at 1920 ± 183 ng·h/mL; in series [2] (setting [7]) it was 632 ng·h/mL; in series [2] (setting [8]), 428 ng·h/mL; in series [4] (setting [7]), 606 ng·h/mL; in series [4] (setting [8]), 462 ng·h/mL; in series [5] (setting [11]), 1520 ± 530 ng·h/mL. Moreover, the “% Difference in AUC0-∞ (deuterated vs nondeuterated species)” value was −36% in series [1] (oral) and −15% in series [5] (intravenous). Moreover, the “% Difference in AUC0-∞ Female (deuterated vs nondeuterated species)” value in series [2] (female chimp) is −60%; in series [4] (female chimp), −68%. Moreover, the “% Difference in AUC0-∞ Male (deuterated vs nondeuterated species)” value is given as −65% in series [2] (male chimp) and −68% in series [4] (male chimp). In series [3] (female chimp), the “% Difference in AUC0-12 Female (deuterated vs nondeuterated species)” value is on record as −25%. In addition, the AUC(0-t) in series [3] (setting [9]) stood at 609 ng·h/mL; in series [3] (setting [10]), 667 ng·h/mL. Moreover, the “% Difference in AUC0-12 Male (deuterated vs nondeuterated species)” value in series [3] (male chimp) was −18%. The “Amount of M5a metabolite less than amount of M5 metabolite” value in series [5] (intravenous administration of Compound 435(S) vs (S)-M1) came to 15%.

Take `[2H]c1nc2c(c(=O)n(CCCC([2H])([2H])[C@@]([2H])(O)C([2H])([2H])[2H])c(=O)n2C)n1C([2H])([2H])[2H]` [Compound 435(S), (S)-8-d1-1-(4,4,5,6,6,6-d6-5-Hydroxyhexyl)-3-methyl-7-(methyl-d3)-1H-purine-2,6(3H,7H)-dione]: in series [1] (male, Sprague-Dawley, rat, oral gavage single 5 mg/kg dose, 1:1 mixture of (S)-M1 and 435(S), species named in label measured in plasma, read-out: Cmax), the peak concentration (Cmax) came to 4100 ± 964 ng/mL. Moreover, the AUC(0-inf) in series [1] (setting [6]) was found to be 4510 ± 1020 ng·h/mL; in series [2] (setting [7]), 1210 ng·h/mL; in series [2] (setting [8]), 2520 ng·h/mL; in series [4] (setting [7]), 672 ng·h/mL; in series [4] (setting [8]), 829 ng·h/mL; in series [5] (setting [11]), 7130 ± 816 ng·h/mL. Also, the “% Difference in AUC0-∞ (deuterated vs nondeuterated species)” value in series [1] (oral) is “+177%”. Further, the “% Difference in Cmax (deuterated vs nondeuterated species)” value in series [1] (oral) was “+162%”. Further, the “% Difference in AUC0-∞ Female (deuterated vs nondeuterated species)” value is reported as “+84%” in series [2] (female chimp) and “+123%” in series [4] (female chimp). Also, the “% Difference in AUC0-∞ Male (deuterated vs nondeuterated species)” value in series [2] (male chimp) is listed as “+61%”; in series [4] (male chimp) it was “+176%”. Moreover, in series [3] (female chimp), the “% Difference in AUC0-12 Female (deuterated vs nondeuterated species)” value is “+108%”. In addition, the AUC(0-t) in series [3] (setting [9]) was found to be 183 ng·h/mL; in series [3] (setting [10]) it was 214 ng·h/mL. Also, in series [3] (male chimp), the “% Difference in AUC0-12 Male (deuterated vs nondeuterated species)” value is given as “+185%”.

In the case of `C[C@H](O)CCCCn1c(=O)c2c(ncn2C)n(C)c1=O` [(S)-M1, reference compound], in series [1] (oral administration, from AUC0-∞), the “Ratio of active species (M1 alcohol + ketone) to M5 metabolite” value worked out at 1.6. The Cmax in series [1] (oral gavage single 5 mg/kg dose, 1:1 mixture of (S)-M1 and 435(S), species named in label measured in plasma) was 1570 ± 249 ng/mL. Moreover, in series [1] (oral gavage single 5 mg/kg dose, 1:1 mixture of (S)-M1 and 435(S), species named in label measured in plasma, −1D and −2D species included), the “AUC0-∞” value turned out to be 1628 ± 272 ng·h/mL. In series [3] (female chimp, oral gavage 65 mg each of pentoxifylline and 435(S) in water, species named in label measured in plasma), the “AUC0-12 Female” value was 88 ng·h/mL. The “AUC0-12 Male” value in series [3] (male chimp, oral gavage 65 mg each of pentoxifylline and 435(S) in water, species named in label measured in plasma) worked out at 75 ng·h/mL. Further, in series [4] (in vivo, po, 75 mg), the “AUC0-∞ Female” value worked out at 301 ng·h/mL and the “AUC0-∞ Male” value was 300 ng·h/mL. The “Ratio of active species to the corresponding M5 metabolite” value in series [5] (intravenous administration) is given as 3.5. Moreover, in series [5] (setting [11]), the “AUC0-∞” value is 3390 ± 302 ng·h/mL.
